# Measurements published in PubChem BioAssay (NCI).
#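 Cells were grown in 96-well plates and exposed to each compound for 48 hours at five concentrations; endpoints were interpolated linearly between bracketing concentrations, or set to the highest concentration if not reached. GI50: concentration for 50% inhibition of growth. The concentration for full growth arrest is given as TGI.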
# Experiments:
# Assay in all cases: DTP human tumour cell line panel, 48 h
# 786-0 renal = test system: 786-0 renal
# A498 renal = test system: A498 renal
# A549 NSCLC = test system: A549 NSCLC
# ACHN renal = test system: ACHN renal
# BT-549 breast = test system: BT-549 breast
# CAKI-1 renal = test system: CAKI-1 renal
# CCRF-CEM leukemia = test system: CCRF-CEM leukemia
# COLO 205 colon = test system: COLO 205 colon
# DU-145 prostate = test system: DU-145 prostate
# EKVX NSCLC = test system: EKVX NSCLC
# HCT-116 colon = test system: HCT-116 colon
# HCT-15 colon = test system: HCT-15 colon
# HL-60(TB) leukemia = test system: HL-60(TB) leukemia
# HOP-62 NSCLC = test system: HOP-62 NSCLC
# HOP-92 NSCLC = test system: HOP-92 NSCLC
# HS 578T breast = test system: HS 578T breast
# IGROV1 ovarian = test system: IGROV1 ovarian
# K-562 leukemia = test system: K-562 leukemia
# KM12 colon = test system: KM12 colon
# LOX IMVI melanoma = test system: LOX IMVI melanoma
# M14 melanoma = test system: M14 melanoma
# MCF7 breast = test system: MCF7 breast
# MDA-MB-231 breast = test system: MDA-MB-231 breast
# MDA-MB-435 = test system: MDA-MB-435
# MOLT-4 leukemia = test system: MOLT-4 leukemia
# NCI-H460 lung = test system: NCI-H460 lung
# NCI-H522 lung = test system: NCI-H522 lung
# OVCAR-3 ovarian = test system: OVCAR-3 ovarian
# OVCAR-8 ovarian = test system: OVCAR-8 ovarian
# PC-3 prostate = test system: PC-3 prostate
# RPMI-8226 leukemia = test system: RPMI-8226 leukemia
# RXF 393 renal = test system: RXF 393 renal
# SF-268 CNS = test system: SF-268 CNS
# SF-295 CNS = test system: SF-295 CNS
# SF-539 CNS = test system: SF-539 CNS
# SK-MEL-2 melanoma = test system: SK-MEL-2 melanoma
# SK-MEL-28 melanoma = test system: SK-MEL-28 melanoma
# SK-MEL-5 melanoma = test system: SK-MEL-5 melanoma
# SK-OV-3 ovarian = test system: SK-OV-3 ovarian
# SN12C renal = test system: SN12C renal
# SNB-19 CNS = test system: SNB-19 CNS
# SNB-75 CNS = test system: SNB-75 CNS
# SR leukemia = test system: SR leukemia
# SW-620 colon = test system: SW-620 colon
# T-47D breast = test system: T-47D breast
# TK-10 renal = test system: TK-10 renal
# U251 CNS = test system: U251 CNS
# UACC-257 melanoma = test system: UACC-257 melanoma
# UACC-62 melanoma = test system: UACC-62 melanoma
# UO-31 renal = test system: UO-31 renal
# HT29 colon = test system: HT29 colon
# MALME-3M melanoma = test system: MALME-3M melanoma
# NCI-H226 lung = test system: NCI-H226 lung
# NCI-H23 lung = test system: NCI-H23 lung
# NCI/ADR-RES ovarian = test system: NCI/ADR-RES ovarian
# OVCAR-4 ovarian = test system: OVCAR-4 ovarian
# OVCAR-5 ovarian = test system: OVCAR-5 ovarian
smiles,measurement,setting,value
CC1=C(C(=O)Nc2ccc(F)c(Cl)c2)C(c2cccc(Cl)c2)NC(=S)N1 (stereo not drawn),GI50,786-0 renal,1.85 µM
same,TGI,786-0 renal,8.4 µM
same,GI50,A498 renal,7.3 µM
same,TGI,A498 renal,15.7 µM
same,GI50,A549 NSCLC,12.7 µM
same,TGI,A549 NSCLC,41.9 µM
same,GI50,ACHN renal,3.61 µM
same,TGI,ACHN renal,14.4 µM
same,GI50,BT-549 breast,10.4 µM
same,TGI,BT-549 breast,28.1 µM
same,GI50,CAKI-1 renal,> 50 µM
same,TGI,CAKI-1 renal,> 50 µM
same,GI50,CCRF-CEM leukemia,36.7 µM
same,TGI,CCRF-CEM leukemia,> 50 µM
same,GI50,COLO 205 colon,4.22 µM
same,TGI,COLO 205 colon,> 50 µM
same,GI50,DU-145 prostate,17.3 µM
same,TGI,DU-145 prostate,> 50 µM
same,GI50,EKVX NSCLC,14.6 µM
same,TGI,EKVX NSCLC,38.6 µM
same,GI50,HCT-116 colon,2.3 µM
same,TGI,HCT-116 colon,11.3 µM
same,GI50,HCT-15 colon,10.2 µM
same,TGI,HCT-15 colon,> 50 µM
same,GI50,HL-60(TB) leukemia,16.3 µM
same,TGI,HL-60(TB) leukemia,> 50 µM
same,GI50,HOP-62 NSCLC,7.83 µM
same,TGI,HOP-62 NSCLC,18.9 µM
same,GI50,HOP-92 NSCLC,32.1 µM
same,TGI,HOP-92 NSCLC,> 50 µM
same,GI50,HS 578T breast,26.4 µM
same,TGI,HS 578T breast,> 50 µM
same,GI50,IGROV1 ovarian,10.3 µM
same,TGI,IGROV1 ovarian,39.2 µM
same,GI50,K-562 leukemia,13.6 µM
same,TGI,K-562 leukemia,28.8 µM
same,GI50,KM12 colon,1.34 µM
same,TGI,KM12 colon,12.6 µM
same,GI50,LOX IMVI melanoma,1.44 µM
same,TGI,LOX IMVI melanoma,6.76 µM
same,GI50,M14 melanoma,9.02 µM
same,TGI,M14 melanoma,23.4 µM
same,GI50,MCF7 breast,47.6 µM
same,TGI,MCF7 breast,> 50 µM
same,GI50,MDA-MB-231 breast,7.36 µM
same,TGI,MDA-MB-231 breast,17.4 µM
same,GI50,MDA-MB-435,11.1 µM
same,TGI,MDA-MB-435,32.4 µM
same,GI50,MOLT-4 leukemia,45.1 µM
same,TGI,MOLT-4 leukemia,> 50 µM
same,GI50,NCI-H460 lung,23.9 µM
same,TGI,NCI-H460 lung,> 50 µM
same,GI50,NCI-H522 lung,2.13 µM
same,TGI,NCI-H522 lung,17.3 µM
same,GI50,OVCAR-3 ovarian,13.9 µM
same,TGI,OVCAR-3 ovarian,33.6 µM
same,GI50,OVCAR-8 ovarian,17.1 µM
same,TGI,OVCAR-8 ovarian,> 50 µM
same,GI50,PC-3 prostate,16.1 µM
same,TGI,PC-3 prostate,> 50 µM
same,GI50,RPMI-8226 leukemia,15.3 µM
same,TGI,RPMI-8226 leukemia,> 50 µM
same,GI50,RXF 393 renal,1.1 µM
same,TGI,RXF 393 renal,3.24 µM
same,GI50,SF-268 CNS,10.1 µM
same,TGI,SF-268 CNS,25.9 µM
same,GI50,SF-295 CNS,6.28 µM
same,TGI,SF-295 CNS,> 50 µM
same,GI50,SF-539 CNS,> 50 µM
same,TGI,SF-539 CNS,> 50 µM
same,GI50,SK-MEL-2 melanoma,8.4 µM
same,TGI,SK-MEL-2 melanoma,20.5 µM
same,GI50,SK-MEL-28 melanoma,10.2 µM
same,TGI,SK-MEL-28 melanoma,28 µM
same,GI50,SK-MEL-5 melanoma,10 µM
same,TGI,SK-MEL-5 melanoma,20.2 µM
same,GI50,SK-OV-3 ovarian,5.26 µM
same,TGI,SK-OV-3 ovarian,26.6 µM
same,GI50,SN12C renal,0.00746 µM
same,TGI,SN12C renal,2.51 µM
same,GI50,SNB-19 CNS,26.7 µM
same,TGI,SNB-19 CNS,> 50 µM
same,GI50,SNB-75 CNS,6.36 µM
same,TGI,SNB-75 CNS,21 µM
same,GI50,SR leukemia,15.4 µM
same,TGI,SR leukemia,47.8 µM
same,GI50,SW-620 colon,> 50 µM
same,TGI,SW-620 colon,> 50 µM
same,GI50,T-47D breast,42.5 µM
same,TGI,T-47D breast,> 50 µM
same,GI50,TK-10 renal,9.01 µM
same,TGI,TK-10 renal,45.5 µM
same,GI50,U251 CNS,6.84 µM
same,TGI,U251 CNS,18.8 µM
same,GI50,UACC-257 melanoma,10.1 µM
same,TGI,UACC-257 melanoma,23.5 µM
same,GI50,UACC-62 melanoma,3.93 µM
same,TGI,UACC-62 melanoma,12.5 µM
same,GI50,UO-31 renal,3.67 µM
same,TGI,UO-31 renal,14.6 µM
COc1ccc2c(c1)n([O-])c1cc(C#N)ccc1[n+]2=O,TGI,786-0 renal,30.8 µM
same,TGI,A549 NSCLC,10.9 µM
same,TGI,ACHN renal,12.4 µM
same,TGI,BT-549 breast,51.6 µM
same,TGI,CAKI-1 renal,14.6 µM
same,TGI,DU-145 prostate,16.6 µM
same,TGI,EKVX NSCLC,79.1 µM
same,TGI,HCT-116 colon,24 µM
same,TGI,HCT-15 colon,4.82 µM
same,TGI,HL-60(TB) leukemia,71.6 µM
same,TGI,HOP-62 NSCLC,15.6 µM
same,TGI,HOP-92 NSCLC,28.6 µM
same,TGI,HS 578T breast,18.6 µM
same,TGI,HT29 colon,10.1 µM
same,TGI,IGROV1 ovarian,26.8 µM
same,TGI,K-562 leukemia,97.4 µM
same,TGI,KM12 colon,12.5 µM
same,TGI,LOX IMVI melanoma,17.6 µM
same,TGI,M14 melanoma,1.67 µM
same,TGI,MALME-3M melanoma,8.06 µM
same,TGI,MCF7 breast,> 100 µM
same,TGI,MDA-MB-231 breast,59.5 µM
same,TGI,MDA-MB-435,6.12 µM
same,TGI,MOLT-4 leukemia,1.38 µM
same,TGI,NCI-H226 lung,21.7 µM
same,TGI,NCI-H23 lung,4.79 µM
same,TGI,NCI-H460 lung,> 100 µM
same,TGI,NCI-H522 lung,27.7 µM
same,TGI,NCI/ADR-RES ovarian,62.9 µM
same,TGI,OVCAR-3 ovarian,26.1 µM
same,TGI,OVCAR-4 ovarian,91 µM
same,TGI,OVCAR-5 ovarian,35.9 µM
same,TGI,OVCAR-8 ovarian,> 100 µM
same,TGI,PC-3 prostate,21.7 µM
same,TGI,RXF 393 renal,> 100 µM
same,TGI,SF-268 CNS,81.3 µM
same,TGI,SF-295 CNS,3.77 µM
same,TGI,SF-539 CNS,16.2 µM
same,TGI,SK-MEL-2 melanoma,19.2 µM
same,TGI,SK-MEL-28 melanoma,40.2 µM
same,TGI,SK-MEL-5 melanoma,2.6 µM
same,TGI,SK-OV-3 ovarian,43.1 µM
same,TGI,SN12C renal,20.6 µM
same,TGI,SNB-19 CNS,> 100 µM
same,TGI,SNB-75 CNS,20.3 µM
same,TGI,SR leukemia,18.9 µM
same,TGI,SW-620 colon,56.3 µM
same,TGI,T-47D breast,48.6 µM
same,TGI,TK-10 renal,10.8 µM
same,TGI,U251 CNS,16.7 µM
same,TGI,UACC-257 melanoma,19.4 µM
same,TGI,UACC-62 melanoma,11 µM
same,TGI,UO-31 renal,23.1 µM
